Experiments:
[1] = system: PGE2 production from IL-1β-stimulated MG-63 cells; experiment: Suppressing action on PGE2 production from IL-1β-stimulated MG-63 cells; type: cell-based; conditions: Homo sapiens, IL-1β 1 ng/ml, 18 hours, read-out: PGE2 production suppression ratio
In short: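 PGE2 in 18 h supernatants was quantified by EIA and expressed as % suppression relative to IL-1β-only and unstimulated controls. Cells were the MG-63 osteosarcoma line, plated at 2×10^4/well, given compound in 0.5% FBS EMEM, then 1 ng/ml IL-1β final.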

[2] = system: zymosan-stimulated footpad edema; experiment: Mouse zymosan-stimulated footpad edema reaction; type: in vivo; conditions: ICR female mice, oral 0.1 to 500 mg/kg, compared with positive control group
In short: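 Female ICR mice (6–7 weeks, n=8) dosed orally at 0.1 to 500 mg/kg in 0.5% methylcellulose; 1 h later zymosan (1 mg/ml, 0.02 ml) injected s.c. into right hind footpad. Edema volume at 1 and 2 h gave AUC to 2 h; suppression (%) calculated against positive control AUC.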

[3] = system: IgE-stimulated footpad edema; experiment: Mouse IgE-stimulated footpad edema reaction; type: in vivo; conditions: C57BL/6 male mice, oral 0.1 to 500 mg/kg, compared with positive control group
Protocol: 4. Suppressing Effect on Mouse IgE-stimulated Footpad Edema Reaction
Suppression on footpad edema caused by IgE antibody as an allergic stimulant was studied by the following method. Groups of C57BL/6 male mice (9- to 11-week old) each consisting of five mice were used for the test. Anti-DNP-BSA IgE serum was subcutaneously administered in a volume of 20 μl to right hind leg footpad of each mouse one day before the test. A test compound was suspended or dissolved in purified water containing 0.5% methylcellulose and orally administered to the test animals at 0.1 to 500 mg/0.2 ml/kg. To the control group, purified water containing 0.5% methylcellulose was administered in a similar manner, which was not added with the test compound. Two hours after the administration of the test compound, 0.2 ml of a solution of DNP-BSA dissolved in physiological saline (Otsuka Pharmaceutical) at 2.5 μg/ml was intravenously administered. The thickness of right hind leg footpad was measured by using a digital thickness gauge (MITSUTOYO) 10, 15, 20, and 30 minutes after the administration of DNP-BSA. A difference of the thickness of footpad measured above and the thickness before the administration of the test compound measured beforehand was regarded as a thickness of edema.
For the thickness of the edema at 10, 15, 20 and 30 minutes after the DNP-BSA administration, a graph was prepared indicating time in abscissa and the edema thickness in ordinate, and edema thickness AUC […] was obtained by calculation according to the following equation. Edema thickness AUC (mm·minute)=1/2×10×A+5×(A+B)/2+5×(B+C)/2+10×(C+D)/2 • A: Edema thickness 10 minutes after DNP-BSA administration • B: Edema thickness 15 minutes after DNP-BSA administration • C: Edema thickness 20 minutes after DNP-BSA administration • D: Edema thickness 30 minutes after DNP-BSA administration
A suppressing ratio on edema of a test compound was obtained by calculation in accordance with the following equation. Edema suppression ratio (%)=[1−B/A]×100 • A: Edema thickness AUC of positive control • B: Edema thickness AUC of test compound administered group (2) Measurement Results

| SMILES | inhibition at 0.4 µM [1] [%] | suppression of footpad edema caused by zymosan [2] | suppression of footpad edema caused by IgE stimulation [3] |
| --- | --- | --- | --- |
| O=C(O)CCc1ccc(OCc2cccc(F)c2)c(-c2ccc3ccccc3c2)c1 [Compound 033, 3-[4-(3-fluorophenylmethyloxy)-3-(naphthalen-2-yl)phenyl]propionic acid] | ≥ 50 | suppressed footpad edema | suppressed the footpad edema |
| O=C(O)CCc1ccc(OCCc2ccccc2)c(-c2ccc3ccccc3c2)c1 [Compound 051, 3-[3-(naphthalen-2-yl)-4-(2-phenylethyloxy)phenyl]propionic acid] | ≥ 50 | – | suppressed the footpad edema |
| O=C(O)CCc1ccc(OCCc2cccc(F)c2)c(-c2ccc3ccccc3c2)c1 [Compound 055, 3-{4-[2-(3-fluorophenyl)ethyloxy]-3-(naphthalen-2-yl)phenyl}propionic acid] | ≥ 50 | suppressed footpad edema | suppressed the footpad edema |
| O=C(O)CCc1ccc(OCCc2ccc(F)cc2)c(-c2ccc3ccccc3c2)c1 [Compound 057, 3-{4-[2-(4-fluorophenyl)ethyloxy]-3-(naphthalen-2-yl)phenyl}propionic acid] | ≥ 50 | suppressed footpad edema | suppressed the footpad edema |
| O=C(O)CCc1ccc(OCC2CCCCC2)c(-c2cccc3[nH]ccc23)c1 [Compound 116, 3-[4-cyclohexylmethyloxy-3-(1H-indol-4-yl)phenyl]propionic acid] | ≥ 50 | suppressed footpad edema | suppressed the footpad edema |
| O=C(O)CCc1ccc(OCc2ccc(F)cc2F)c(-c2ccc3[nH]ccc3c2)c1 [Compound 156, 3-[4-(2,4-difluorophenylmethyloxy)-3-(1H-indol-5-yl)phenyl]propionic acid] | ≥ 50 | – | suppressed the footpad edema |
| O=C(O)CCc1ccc(OCc2ccc(F)c(F)c2)c(-c2ccc3[nH]ccc3c2)c1 [Compound 158, 3-[4-(3,4-difluorophenylmethyloxy)-3-(1H-indol-5-yl)phenyl]propionic acid] | ≥ 50 | – | suppressed the footpad edema |
| O=C(O)CCc1ccc(OCc2ccc(Br)cc2F)c(-c2ccc3[nH]ccc3c2)c1 [Compound 168] | – | suppressed footpad edema | suppressed the footpad edema |
| O=C(O)CCc1ccc(OCc2ccc3ccccc3c2)c(-c2ccc3[nH]ccc3c2)c1 [Compound 192, 3-{3-(1H-indol-5-yl)-4-[(Naphthalen-2-yl)methyloxy]phenyl}propionic acid] | ≥ 50 | – | suppressed the footpad edema |
| O=C(O)CCc1ccc(OCCc2ccc(Cl)cc2)c(-c2ccc3[nH]ccc3c2)c1 [Compound 213, 3-{4-[2-(4-chlorophenyl)ethyloxy]-3-(1H-indol-5-yl)phenyl}propionic acid] | ≥ 50 | – | suppressed the footpad edema |
| Nc1cc(CCC(=O)O)cc(-c2ccc3[nH]ccc3c2)c1OCC1CCCC1 [Compound 266, 3-[3-amino-4-cyclopentylmethyloxy-5-(1H-indol-5-yl)phenyl]propionic acid] | ≥ 50 | – | suppressed the footpad edema |
| O=C(O)CCc1ccc(OCc2ccccc2)c(-c2ccc3[nH]ccc3c2)c1 [Compound 325, 3-[4-benzyloxy-3-(1H-indol-5-yl)phenyl]propionic acid] | ≥ 50 | – | suppressed the footpad edema |
